Source: patent US6521645B2, “Methods for the treatment and prevention of urinary stone disease” (The University of Kansas Medical Center, priority 2000, dated 2003)
Like-named read-outs stand apart in the source and are kept apart here.

Key:
[1] = cited from earlier work
[2] = rat model of hyperoxaluria; cited from earlier work
[3] = cited from earlier work; remark: listed apart in the source
[4] = Body weight, behavior and water consumption of pyridoxamine-treated rats; assay type: in vivo, Sprague-Dawley rats
Procedure: (§1) Two month old Sprague-Dawley rats were housed individually in metabolic cages and fed standard powdered stock rations. […] To minimize possible chemical degradation of pyridoxamine, fresh solutions were prepared daily and administered in water bottles wrapped in aluminum foil.

[5] = target: T1, oxalate oxidase (Hordeum vulgare, UniProt P45850); assay: Interference of pyridoxamine with urinary oxalate determination by oxalate oxidase method; set-up: species or system Barley; conditions: pyridoxamine added to assay mixtures, final concentration 2 mg/ml
T1 construct: Oxalate oxidase from Barley seedlings was purchased from Sigma Co; purchased Sigma Co. (St. Louis, Mo.); host or cells: barley seedlings (natural source)
T1 sequence (P45850 1-201): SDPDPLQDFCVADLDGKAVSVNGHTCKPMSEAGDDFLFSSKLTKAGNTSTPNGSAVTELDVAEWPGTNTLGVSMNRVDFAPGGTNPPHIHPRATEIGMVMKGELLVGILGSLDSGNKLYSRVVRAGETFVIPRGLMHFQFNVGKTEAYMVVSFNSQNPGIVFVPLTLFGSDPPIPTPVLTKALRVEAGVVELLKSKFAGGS
Procedure: Twenty-four hour urine samples were collected under toluene (to inhibit bacterial growth) using containers with 2 M hydrochloric acid to minimize spontaneous breakdown of urinary ascorbic acid to oxalate (21). The urine samples were stored at −70° C. until further analysis. […] Collected urine samples were analyzed to determine concentrations of oxalate using the oxalate oxidase method (23). This assay is highly specific and sensitive to about 10 μM (23). […] The method is based on the conversion of oxalate to hydrogen peroxide and carbon dioxide by oxalate oxidase. The latter was determined enzymatically with horseradish peroxidase by oxidative coupling of 3-methyl-2-benzothiazolinone hydrazone with N,N-dimethylaniline. The resulting colored product was determined spectrophotometrically at 595 nm. The modified sample preparation procedure was used, which replaces column chromatography with a simple precipitation step (24).

[6] = diabetic rat model, 7 months, same dose; cited from earlier work
[7] = Ethylene glycol (EG) rat model of experimental hyperoxaluria; assay type: in vivo; conditions: rats given EG […] solution in drinking water; predicted result
Source text: Both compounds are precursors of oxalate synthesis and their administration results in increased urinary oxalate concentration. […] The use of two different models also helps to minimize possible model-specific adverse effects. […] The results for Day-14 oxalate are known by Day 15, at which time the animals within each group (Control, EG) are pair-matched according to their Day-14 oxalate. The pyridoxamine and no-pyridoxamine groups therefore begin the pyridoxamine-treatment period with nearly identical mean and standard deviation oxalate excretion, which optimizes the sensitivity of this experimental design.

[8] = Urinary oxalate excretion in pyridoxamine-treated rats (oxalate oxidase method); assay type: in vivo, Sprague-Dawley rats; conditions: pyridoxamine in drinking water, 1.2 μm/day/gram body weight
Procedure: as §1
Twenty-four hour urine samples were collected under toluene (to inhibit bacterial growth) using containers with 2 M hydrochloric acid to minimize spontaneous breakdown of urinary ascorbic acid to oxalate (21). The urine samples were stored at −70° C. until further analysis. Under these conditions, frozen urine can be stored for at least 1 month with no effect on oxalate measurements (22). Collected urine samples were analyzed to determine concentrations of oxalate using the oxalate oxidase method (23). This assay is highly specific and sensitive to about 10 μM (23). Oxalate oxidase from Barley seedlings was purchased from Sigma Co. (St. Louis, Mo.). The method is based on the conversion of oxalate to hydrogen peroxide and carbon dioxide by oxalate oxidase. […] was determined enzymatically with horseradish peroxidase by oxidative coupling of 3-methyl-2-benzothiazolinone hydrazone with N,N-dimethylaniline. The resulting colored product was determined spectrophotometrically at 595 nm. The modified sample preparation procedure was used, which replaces column chromatography with a simple precipitation step (24).

Question: With `Cc1ncc(CO)c(CO)c1O` [pyridoxine] as the compound, how does the urinary oxalate levels ([1]; stone formers, 200 mg daily) read?
Answer: did not reduce

Question: What about the “risk of kidney stone formation” value ([1]; women, 40 mg/day) of the same compound?
Answer: reduced risk

Question: With `O=C1N[C@H](C(=O)O)CS1` [OTZ, (L)-2-oxothiazolidine-4-carboxylate] as the compound, how does the urinary oxalate concentration [2] read?
Answer: decrease

Question: And the urinary oxalate levels ([3]; normal individuals)?
Answer: decreased

Question: And the adverse effects ([3]; patients, administered for only 48 hours)?
Answer: mild to moderate adverse effects

Question: With `Cc1ncc(CO)c(CN)c1O.Cl.Cl` [pyridoxamine, Pyridoxamine dihydrochloride] as the compound, how does the “general behavior versus control group” value [4] read?
Answer: no difference

Question: And the “weight gain versus control group” value [4]?
Answer: no difference

Question: And the Weight ([4]; Day 1)?
Answer: 315 ± 6 grams

Question: What about the Weight ([4]; Day 26) of the same compound?
Answer: 363 ± 16 grams

Question: And the “effect on oxalate measurements” value [5]?
Answer: no effect

Question: What about the “therapeutic effect of the dose” value [6] of the same compound?
Answer: had therapeutic effects

Question: What about the oxalate excretion [7] of the same compound?
Answer: significantly reduce

Question: What about the “statistical significance of the urinary oxalate difference from controls” value [8] of the same compound?
Answer: statistically different from controls after 12 days

Question: And the “urinary oxalate levels versus controls” value [8]?
Answer: consistently lower
